One substance from PMC11187126, “Structure and dynamics of the pyroglutamylated RF-amide peptide QRFP receptor GPR103” (Nature Communications, 2024) can be followed below.

Broadly, the EC50 is the concentration needed to bring the measured effect to its halfway point. High values mean a need for much substance, low ones an effect from little substance.

For the test, the target named is T1, GPR103 W286^6.48A (Homo sapiens, UniProt Q96P65, W286A).
T1 construct: we used human full-length QRFPR-encoding plasmids; expressed in transfected cells; host or cells: HEK293 cells (HEK293A in the flow cytometry section), pCAGGS vector
T1 sequence (Q96P65 1-431 W286A): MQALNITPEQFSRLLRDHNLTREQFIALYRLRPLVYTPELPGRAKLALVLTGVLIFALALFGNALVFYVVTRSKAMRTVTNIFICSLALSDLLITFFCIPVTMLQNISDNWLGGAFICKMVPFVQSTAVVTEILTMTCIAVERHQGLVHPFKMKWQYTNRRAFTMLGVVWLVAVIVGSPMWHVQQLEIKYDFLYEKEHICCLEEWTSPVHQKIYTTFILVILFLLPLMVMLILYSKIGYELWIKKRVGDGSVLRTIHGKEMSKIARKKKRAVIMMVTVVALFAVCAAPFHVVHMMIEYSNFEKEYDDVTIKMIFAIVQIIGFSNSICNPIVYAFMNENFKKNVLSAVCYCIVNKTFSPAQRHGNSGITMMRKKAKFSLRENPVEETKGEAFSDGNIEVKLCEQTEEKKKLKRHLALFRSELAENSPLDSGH
Nature of the test: TGFα shedding assay; Exp. level WT (1:20). It is filed as cell-based. The procedure: For the TGFα shedding assay and the flow cytometry analysis, we used human full-length QRFPR-encoding plasmids. Specifically, GPR103 was N-terminally modified with an HA signal sequence followed by a FLAG epitope and then a flexible linker ([…]; the FLAG epitope is underlined) and inserted into the pCAGGS vector. Plasmid encoding GPR103 mutants were generated using Quickchange Site-Directed Mutagensis kit (Agilent).
The TGFα shedding assay was performed as described previously with minor modifications. Plasmid transfection was performed in a 6-well plate with a mixture of 500 ng (per well in a 6-well plate) AP-TGFα-encoding plasmid and 200 ng GPR103-encoding plasmid. After 1-day culture, the transfected cells were harvested by trypsinization, pelleted by centrifugation at 190 × g for 5 min, and washed once with 5 mM HEPES (pH 7.4)-containing Hank’s Balanced Salt Solution (HBSS). After centrifugation, the cells were resuspended in 8 mL of the HEPES-containing HBSS. The cell suspension was seeded in a 96-well culture plate (cell plate) at a volume of 90 μL (per well hereafter) and incubated in a 37 °C incubator with 5% CO2 for 30 min. […] After spinning the cell plates at 190 × g for 2 min, 80 μL of conditioned media was transferred to an empty 96-well plate (conditioned media (CM) plate). Then, 80 μL of AP reaction solution (10 mM p-nitrophenylphosphate (p-NPP), 120 mM Tris-HCl (pH 9.5), 40 mM NaCl, and 10 mM MgCl2) was dispensed into the cell plates and the CM plates. Absorbance at 405 nm of the plates was measured using a microplate reader (SpectraMax 340 PC384, Molecular Devices) before and after 1-h incubation at room temperature. Ligand-induced AP-TGFα release was calculated by subtracting spontaneous AP-TGFα release signal from ligand-induced AP-TGFα release signal. The AP-TGFα release signals were fitted to a four-parameter sigmoidal concentration–response curve, using the Prism 10 software (GraphPad Prism). For each replicate experiment, the pEC50 parameter (negative logarithmic values of EC50 values) of the individual GPR103 mutants were normalized to that of the wild-type GPR103 performed in parallel, and resulting ∆pEC50 values were used to denote ligand response activity of the mutants. […]
Exp. le vel: WT (1:5 0)Exp. le vel: WT (1:5 0)Exp. le vel: WT (1:5 0)Exp. le vel: WT (1:2 0)Exp. le vel: WT (1:2 0)Exp. le vel: WT (1:1 0) […]
L1 4N - t e r mA F2 5N - t e r mA I 2 6N - t e r mA Y 2 9N - t e r mA C 9 82 .5 7A T10 22 .6 1A Exp . l eve l: WT (1 :5)Exp . l evel : >WT (1 :1)Exp. le vel: WT (1:2 0)Exp. le vel: WT (1:2 0)Exp. le vel: WT (1:5 0)Exp . l eve l: WT (1 :1) […]
Exp. le vel: WT (1:1 0)Exp. le vel: WT (1:2 0) C 1 1 83 .2 5AExp. le vel: WT (1:5 0)Exp. le vel: WT (1:5 0)Exp. le vel: WT (1:2 0)Exp . l eve l: WT (1 :5) […]
Exp. le vel: WT (1:5 0)Exp. le vel: WT (1:1 0)Exp. le vel: WT (1:5 0) E203ECL2AExp . l evel : >WT (1 :1)Exp. le vel: WT (1:5 0)Exp. le vel: WT (1:5 0) […]
Exp . l eve l: WT (1 :1) F28Exp. le vel: WT (1:5 0) C 2 8 56 .4 7AExp. le vel: WT (1:2 0) WExp. le vel: WT (1:2 0) F28Exp. le vel: WT (1:5 0)Exp . l evel : >WT (1 :1) […]
Exp. le vel: WT (1:5 0)Exp. le vel: WT (1:5 0) C 3 2 77 .4 8AExp . l eve l: WT (1 :5)Exp . l evel : >WT (1 :1)Exp . l evel : >WT (1 :1) […]
Suppl eme nt ary Figure 1 | Mutational analysis of GPR103. […]
mutants. Data are presented as mean values ± SEM, normally n=3-5; dots), each performed in triplicate. b-d Cell-surface expression (b) and QRFP26-in-duced activation of GPR103 (c, d) were analyzed by the flow cytometry and the TGFα shedding assay, respectively. From the concentration–response curves (a), Emax (c) and ΔpEC50 (d) values relative to the wild type were calculated. Colors in the mutant bars indicate an expression level matching to that of titrated wild type. Statistical analyses were performed using the ordinary one-way ANOVA followed by Dunnett tests with the expression-matched […]

Like-named read-outs stand apart in the source and are kept apart here. No end group written: not given here.

For the substance TSGPLGNLAEELNGYSRKKGGFSFRF-NH2 [QRFP26], the Emax (Exp. #1) came out at 72.87 % WT; the Emax (Exp. #2) came out at 70.40 % WT; the Emax (Exp. #3) came out at 78.23 % WT; the Emax (mean, read-out: Emax) stood at 73.8%; the Emax (n = 3, read-out: Emax) was determined as 75.7 ± 1.9%. This substance gave an EC50 (n = 3) of 1120 nM.
